{
  "source": "patent US6747022B2",
  "about": "“Calcium salts of 1,5-benzodiazepine derivatives, process for producing the salts and drugs containing the same” (Zeria Pharmaceutical Co., Ltd., priority 1999, dated 2004)",
  "key": {"[1]": {"molecular_target": "T1, CCK-B receptor (Cavia porcellus, UniProt H0VZC5)", "T1 sequence (H0VZC5 1-426)": "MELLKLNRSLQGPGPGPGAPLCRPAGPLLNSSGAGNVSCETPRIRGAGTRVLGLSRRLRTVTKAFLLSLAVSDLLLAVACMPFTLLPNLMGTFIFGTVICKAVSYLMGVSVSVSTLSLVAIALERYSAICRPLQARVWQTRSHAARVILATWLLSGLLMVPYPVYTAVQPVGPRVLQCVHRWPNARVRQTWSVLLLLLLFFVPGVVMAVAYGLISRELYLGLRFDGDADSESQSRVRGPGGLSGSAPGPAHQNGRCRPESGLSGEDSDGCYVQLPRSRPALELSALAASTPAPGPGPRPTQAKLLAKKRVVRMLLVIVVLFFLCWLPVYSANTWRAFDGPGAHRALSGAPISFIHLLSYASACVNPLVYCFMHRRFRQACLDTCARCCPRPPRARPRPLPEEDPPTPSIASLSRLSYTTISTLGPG", "assay": "Binding test to CCK-B receptor ([3H]CCK-8, cerebral cortex membranes)", "parameters": "species or system guinea pig", "conditions": "inhibition of specific binding of 1.0 nM [3H]CCK-8, 25° C., 2 hours", "protocol": "Binding Test to CCK-B Receptor\nThe cerebral cortex excised from a Hartley-strain male guinea pig was homogenized in 50 times the amount of a 50 mM Tris-HCl buffer (pH 7.4), followed by centrifugal separation at 50000×g for 10 minutes. Addition of the same amount of the same buffer to the precipitate thus obtained and centrifugation were repeated 2 times. The final precipitate was homogenized in a 10 mM HEPES buffer (pH 6.5) containing 5 mM magnesium chloride, 1 mM EGTA, 0.25 mg/ml bacitracin and 130 mM sodium chloride, and used as the receptor preparation.\nBinding assay was conducted by adding, to 50 μl of a test compound solution, 50 μl of a [^3H]CCK-8 solution having the final concentration of 1.0 nM and 900 μl of the receptor preparation (protein content: 800 μg/tube) and reacting them at 25° C. for 2 hours. After completion of the reaction, the mixture was suction filtrated through a Whatman GF/B filter treated in advance with 0.1% BSA. Rightly after filtration, the filter was washed four times, each with 3 ml of ice-cold 50 mM Tris-HCl buffer (pH 7.4). After a scintillator was added to the filter and the resulting filter was then allowed to stand for a day, radioactivity on the filter was measured by a liquid scintillation counter. The binding of [^3H]CCK-8 in the presence of 1 μM CCK-8 when the test compound was not added was defined as non-specific binding. […]"}, "[2]": {"assay": "Test on hygroscopicity under high humidity conditions (1), 0.5 g sample", "type": "physicochemical", "protocol": "(§1) Test 3 (Test on Hygroscopicity under High Humidity Conditions)\n(§2) (1) A saturated aqueous solution of potassium sulfate was charged in a desiccator and was allowed to stand for at least one day in a temperature controlled room set at 25° C. The sample (0.5 g) was stored and weighed. Hygroscopicity was measured by its weight change. The relative humidity at that time was 97.3% RH."}, "[3]": {"tested_on": "pentagastrin-stimulated gastric acid secretion", "assay": "Test on inhibition of pentagastrin-stimulated gastric acid secretion", "type": "in vivo, rat", "conditions": "SD rats, 0.03 mg/kg intraduodenal, acid output 1 to 4 hours after administration, pentagastrin 15 μg/kg/hr", "protocol": "Test on Inhibition of Pentagastrin-stimulated Gastric Acid Secretion\nMale Sprague-Dawley (SD)-strain rats were used. Under anesthesia with ether, each rat was subjected to the operation for pylorus ligation and placement of a duodenal catheter and gastric fistula. After completion of the operation, each rat was held in a Bollman-type cage and constantly infused with 15 μg/kg/hr of pentagastrin through the tail vein. Test compounds were suspended in a 0.5% sodium carboxymethylcellulose solution (which will hereinafter be called “vehicle”). Administration of the vehicle or test compound was carried out through the intraduodenal catheter 1 hour after the beginning of pentagastrin infusion. Acidity of the collected gastric juice was measured by an automatic titrator. Acid output was determined by multiplying the volume of gastric juice by its acidity. Inhibition of acid output for 3 hours from 1 to 4 hours after administration of the test compound was calculated by the following equation.\nInhibition (%)=(mean acid output of vehicle administered group−mean acid output of compound group)/mean acid output of vehicle administered group×100"}, "[4]": {"assay": "Test on hygroscopicity under high humidity conditions (2), 0.1 g sample", "type": "physicochemical", "protocol": "as §1\nas §2, with “(2)” for “(1)”, “(0.1” for “(0.5”"}},
  "data": [
    {"compound": "CC(C)(C)C(=O)CN1C(=O)[C@H](NC(=O)Nc2cccc(C(=O)[O-])c2)CN(C2CCCCC2)c2ccccc21.CC(C)(C)C(=O)CN1C(=O)[C@H](NC(=O)Nc2cccc(C(=O)[O-])c2)CN(C2CCCCC2)c2ccccc21.[Ca+2]", "note": "[Compound of Example 1 (Ca salt), calcium (R)-(−)-3-[3-(1-tert-butylcarbonylmethyl-2-oxo-5-cyclohexyl-1,3,4,5-tetrahydro-2H-1,5-benzodiazepin-3-yl)ureido]benzoate]", "values": [
      {"measurement": "IC50", "setting": "[1]", "value": 1.68, "unit": "nM"},
      {"measurement": "Hygroscopicity compared with the corresponding Na salt", "setting": "[2]; 25° C., 97.3% RH, versus Na salt of Compound of Example 143 in WO98/25911", "value": "lower hygroscopicity"},
      {"measurement": "Weight change (%) when stored at 25° C. and 97.3% RH", "setting": "[2]; storage time 0 day", "value": 0, "unit": "%"},
      {"measurement": "Weight change (%) when stored at 25° C. and 97.3% RH", "setting": "[2]; storage time 1 day", "value": 4.61, "unit": "%"},
      {"measurement": "Weight change (%) when stored at 25° C. and 97.3% RH", "setting": "[2]; storage time 2 days", "value": 5.00, "unit": "%"},
      {"measurement": "Weight change (%) when stored at 25° C. and 97.3% RH", "setting": "[2]; storage time 3 days", "value": 4.94, "unit": "%"},
      {"measurement": "Weight change (%) when stored at 25° C. and 97.3% RH", "setting": "[2]; storage time 4 days", "value": 4.97, "unit": "%"},
      {"measurement": "Weight change (%) when stored at 25° C. and 97.3% RH", "setting": "[2]; storage time 10 days", "value": 5.43, "unit": "%"},
      {"measurement": "Weight change (%) when stored at 25° C. and 97.3% RH", "setting": "[2]; storage time 14 days", "value": 5.41, "unit": "%"},
      {"measurement": "Inhibition of acid output (%)", "setting": "[3]", "value": 42.3, "unit": "%"}
    ]},
    {"compound": "CC(C)(C)C(=O)CN1C(=O)[C@H](NC(=O)Nc2cccc(C(=O)O)c2)CN(C2CCCCC2)c2ccccc21", "note": "[Compound of Example 1 in the free form, (R)-(−)-3-[3-(1-tert-butylcarbonylmethyl-2-oxo-5-cyclohexyl-1,3,4,5-tetrahydro-2H-1,5-benzodiazepin-3-yl)ureido]benzoic acid, reference compound]", "values": [
      {"measurement": "IC50", "setting": "[1]", "value": 1.45, "unit": "nM"},
      {"measurement": "Inhibition of acid output (%)", "setting": "[3]", "value": 4.8, "unit": "%"}
    ]},
    {"compound": "CC(C)(C)C(=O)CN1C(=O)[C@H](NC(=O)Nc2cccc(C(C)(C)C(=O)O)c2)CN(C2CCCCC2)c2ccccc21", "note": "[Compound of Example 4 in the free form, (R)-(−)-2-[3-[3-(1-tert-butylcarbonylmethyl-2-oxo-5-cyclohexyl-1,3,4,5-tetrahydro-2H-1,5-benzodiazepin-3-yl)ureido]phenyl]-2-methylpropionic acid, reference compound]", "values": [
      {"measurement": "Inhibition of acid output (%)", "setting": "[3]; Table 2", "value": 13.7, "unit": "%"}
    ]},
    {"compound": "calcium (R)-(−)-2-[3-[3-(1-tert-butylcarbonylmethyl-2-oxo-5-cyclohexyl-1,3,4,5-tetrahydro-2H-1,5-benzodiazepin-3-yl)ureido]phenyl]-2-methylpropionate [Compound of Example 4 (Ca salt)]", "values": [
      {"measurement": "Hygroscopicity compared with the corresponding Na salt", "setting": "[4]; 25° C., 97.3% RH, versus Compound of Example 5 in WO99/64403", "value": "lower hygroscopicity"},
      {"measurement": "Weight change (%) when stored at 25° C. and 97.3% RH", "setting": "[4]; storage days 0", "value": 0, "unit": "%"},
      {"measurement": "Weight change (%) when stored at 25° C. and 97.3% RH", "setting": "[4]; storage days 2", "value": 8.15, "unit": "%"},
      {"measurement": "Weight change (%) when stored at 25° C. and 97.3% RH", "setting": "[4]; storage days 4", "value": 7.87, "unit": "%"},
      {"measurement": "Weight change (%) when stored at 25° C. and 97.3% RH", "setting": "[4]; storage days 7", "value": 8.38, "unit": "%"},
      {"measurement": "Weight change (%) when stored at 25° C. and 97.3% RH", "setting": "[4]; storage days 9", "value": 9.07, "unit": "%"},
      {"measurement": "Weight change (%) when stored at 25° C. and 97.3% RH", "setting": "[4]; storage days 11", "value": 8.14, "unit": "%"},
      {"measurement": "Weight change (%) when stored at 25° C. and 97.3% RH", "setting": "[4]; storage days 18", "value": 8.51, "unit": "%"},
      {"measurement": "Weight change (%) when stored at 25° C. and 97.3% RH", "setting": "[4]; storage days 30", "value": 8.23, "unit": "%"},
      {"measurement": "Inhibition of acid output (%)", "setting": "[3]; Table 2", "value": 46.1, "unit": "%"}
    ]}
  ]
}
